This is an account of results in patent US7442541B2, “β-glucan-containing fat and oil composition and novel microorganism capable of producing β-glucan” (Adeka Corporation, priority 2002, dated 2008).

Holding throughout (assay): Cycloheximide resistance test
Holding throughout (format): cell-based, Aureobasidium pullulans

In one assay the test system is IFO-6353. The settings on record: strain IFO-6353, YM agar, 26° C., 10 days. The protocol: (§1) The strains obtained by the screening in Test Examples 1 and 2 and IFO-4466, IFO-6353, and IFO-7757 purchased from Institute for Fermentation, Osaka, i.e., were tested for cycloheximide resistance as follows. Each strain was grown on YM agar medium (Difco) at 26° C. for 5 days. YM agar media (Difco) containing 5, 10, 20, 40, and 80 μg/ml of cycloheximide were prepared. The grown strain was inoculated into each of the cycloheximide-containing media using a sterile toothpick and incubated at 26° C. for 10 days. The plates were examined for colonies. The diameters of the colonies, if formed, were measured.

A further assay deals with ADK-82. The following applies: strain ADK-82, YM agar, 26° C., 10 days. As for the experimental part:
as §1

For a further assay, the system named is IFO-7757. The settings on record: strain IFO-7757, YM agar, 26° C., 10 days. As for the experimental part: as §1
The next assay relates to IFO-4466. The settings on record: strain IFO-4466, YM agar, 26° C., 10 days. As for the experimental part:
as §1

Consider `C[C@@H]1C[C@@H]([C@H](O)CC2CC(=O)NC(=O)C2)C(=O)[C@@H](C)C1` [Cycloheximide, cycloheximide], for which the Colony diameter amounted to 7.3 mm in the assay on IFO-6353 (cycloheximide 5 μg/ml); 2.3 mm in the assay with IFO-6353 (cycloheximide 10 μg/ml); 0 mm in the assay with IFO-6353 (cycloheximide 20 μg/ml); 0 mm in the assay on IFO-6353 (cycloheximide 40 μg/ml); 0 mm with IFO-6353 (cycloheximide 80 μg/ml); 10.4 mm in the assay with ADK-82 (cycloheximide 5 μg/ml). In addition, the Colony diameter in the assay on ADK-82 (cycloheximide 10 μg/ml) is reported as 2.9 mm; in the assay with ADK-82 (cycloheximide 20 μg/ml), 1.5 mm; in the assay on ADK-82 (cycloheximide 40 μg/ml) it was 1.2 mm; in the assay on ADK-82 (cycloheximide 80 μg/ml), 0 mm; with IFO-7757 (cycloheximide 5 μg/ml), 0 mm; in the assay with IFO-7757 (cycloheximide 10 μg/ml), 0 mm. The Colony diameter amounted to 0 mm with IFO-7757 (cycloheximide 20 μg/ml); 0 mm in the assay with IFO-7757 (cycloheximide 40 μg/ml); 0 mm with IFO-7757 (cycloheximide 80 μg/ml); 4.4 mm in the assay with IFO-4466 (cycloheximide 5 μg/ml); 0 mm in the assay on IFO-4466 (cycloheximide 10 μg/ml); 0 mm in the assay with IFO-4466 (cycloheximide 20 μg/ml). The Colony diameter with IFO-4466 (cycloheximide 40 μg/ml) and in the assay on IFO-4466 (cycloheximide 80 μg/ml) was 0 mm in each case.
